These results are taken from ChEMBL document CHEMBL4330090, “The effect of replacing the ester bond with an amide bond and of overall stereochemistry on the activity of daptomycin” (2019).

Test [1] relates to Lipid bilayer. Kind of test: Binding affinity to DMPC/DMPG large unilamellar vesicles assessed as increase in intrinsic fluorescence in presence of >1 mM Ca2+ by fluorescence based assay.
Test [2] has as its system Bacillus subtilis. The experiment in a line: Antibacterial activity against Bacillus subtilis 1046 in presence of 1.25 mM Ca2+. In kind it is functional.
The subject of test [3] is Bacillus subtilis. Kind of test: Antibacterial activity against Bacillus subtilis 1046 in presence of 5 mM Ca2+. In kind it is functional.
The test system of test [4] is Lipid bilayer. The experiment in a line: Binding affinity to DMPC/DMPG large unilamellar vesicles assessed as increase in intrinsic fluorescence in presence of >0.1 mM Ca2+ by fluorescence based assay.
For a further test, the system named is Staphylococcus aureus. The experiment in a line: Antibacterial activity against Staphylococcus aureus. In kind it is functional.
Test [5] concerns Lipid bilayer. Kind of test: Binding affinity to DMPC/DMPG large unilamellar vesicles assessed as increase in intrinsic fluorescence in presence of >10 mM Ca2+ by fluorescence based assay.
Test [6] concerns Lipid bilayer. The experiment in a line: Binding affinity to DMPC/DMPG large unilamellar vesicles assessed as increase in intrinsic fluorescence in presence of 10 mM Ca2+ by fluorescence based assay.
Test [7] concerns Lipid bilayer. The experiment in a line: Binding affinity to DMPC/DMPG large unilamellar vesicles assessed as increase in intrinsic fluorescence in presence of 1 mM Ca2+ by fluorescence based assay.

In brackets after ≈: the same amount, converted by molar mass. Activity calls are given as the source filed them. No cut-off for these calls is given here.

With `CCCCCCCCCC(=O)N[C@@H](Cc1c[nH]c2ccccc12)C(=O)N[C@@H](CC(N)=O)C(=O)N[C@@H](CC(=O)O)C(=O)N[C@@H]1C(=O)NCC(=O)N[C@@H](CCCCN)C(=O)N[C@@H](CC(=O)O)C(=O)N[C@H](C)C(=O)N[C@@H](CC(=O)O)C(=O)NCC(=O)N[C@H](CO)C(=O)N[C@@H](CCC(=O)O)C(=O)N[C@@H](Cc2c[nH]c3ccccc23)C(=O)N[C@@H]1C`, the outcome in the test on Lipid bilayer [1] was Active. Besides, the MIC came to 50 µg/mL with Bacillus subtilis [2] and 10 µg/mL with Bacillus subtilis [3].

Turning to `CCCCCCCCCC(=O)N[C@@H](Cc1c[nH]c2ccccc12)C(=O)N[C@H](CC(N)=O)C(=O)N[C@@H](CC(=O)O)C(=O)N[C@@H]1C(=O)NCC(=O)N[C@@H](CCCN)C(=O)N[C@@H](CC(=O)O)C(=O)N[C@H](C)C(=O)N[C@@H](CC(=O)O)C(=O)NCC(=O)N[C@H](CO)C(=O)N[C@@H]([C@H](C)CC(=O)O)C(=O)N[C@@H](CC(=O)c2ccccc2N)C(=O)O[C@@H]1C`, the result in the test with Lipid bilayer [4] was Active. Further, the values for the minimum inhibitory concentration (MIC) in the test on Staphylococcus aureus, in the test on Bacillus subtilis [2] and in the test with Bacillus subtilis [3] were 1.9 µg/mL (≈ 1.17 µM), 0.75 µg/mL and 0.5 µg/mL, respectively.

With `CCCCCCCCCC(=O)N[C@@H](Cc1c[nH]c2ccccc12)C(=O)N[C@@H](CC(N)=O)C(=O)N[C@@H](CC(=O)O)C(=O)N[C@@H]1C(=O)NCC(=O)N[C@@H](CCCCN)C(=O)N[C@@H](CC(=O)O)C(=O)N[C@H](C)C(=O)N[C@@H](CC(=O)O)C(=O)NCC(=O)N[C@H](CO)C(=O)N[C@@H](CCC(=O)O)C(=O)N[C@@H](Cc2c[nH]c3ccccc23)C(=O)O[C@@H]1C`, the outcome in the test on Lipid bilayer [4] was Active. Further, the MIC is 1.5 µg/mL in the test with Bacillus subtilis [2] and 0.5 µg/mL in the test on Bacillus subtilis [3].

In the test on Staphylococcus aureus, `CCCCCCCCCC(=O)N[C@H](Cc1c[nH]c2ccccc12)C(=O)N[C@H](CC(N)=O)C(=O)N[C@@H](CC(=O)O)C(=O)N[C@H]1CNC(=O)[C@@H](Cc2c[nH]c3ccccc23)NC(=O)[C@@H](CCC(=O)O)NC(=O)[C@H](CO)NC(=O)CNC(=O)[C@@H](CC(=O)O)NC(=O)[C@H](C)NC(=O)[C@@H](CC(=O)O)NC(=O)[C@@H](CCCCN)NC(=O)CNC1=O` yielded an MIC of 160 µg/mL (≈ 99.9 µM).

Turning to `CCCCCCCCCC(=O)N[C@@H](Cc1c[nH]c2ccccc12)C(=O)N[C@@H](CC(N)=O)C(=O)N[C@@H](CC(=O)O)C(=O)N[C@@H]1C(=O)NCC(=O)N[C@@H](CCCCN)C(=O)N[C@@H](CC(=O)O)C(=O)N[C@H](C)C(=O)N[C@@H](CC(=O)O)C(=O)NCC(=O)N[C@H](CO)C(=O)N[C@@H](CCC(=O)O)C(=O)N[C@@H](Cc2c[nH]c3ccccc23)C(=O)N[C@H]1C`, the result in the test on Lipid bilayer [5] was Active. Also, the values for the MIC with Bacillus subtilis [2] and in the test with Bacillus subtilis [3] were > 100 µg/mL and 10 µg/mL, respectively.

On to `CCCCCCCCCC(=O)N[C@H](Cc1c[nH]c2ccccc12)C(=O)N[C@H](CC(N)=O)C(=O)N[C@@H](CC(=O)O)C(=O)N[C@H]1C(=O)NCC(=O)N[C@H](CCCCN)C(=O)N[C@H](CC(=O)O)C(=O)N[C@@H](C)C(=O)N[C@H](CC(=O)O)C(=O)NCC(=O)N[C@@H](CO)C(=O)N[C@H](CCC(=O)O)C(=O)N[C@H](Cc2c[nH]c3ccccc23)C(=O)O[C@H]1C`, for which the result with Lipid bilayer [6] and in the test with Lipid bilayer [7] was Active. Further, the minimum inhibitory concentration (MIC) was > 200 µg/mL with Bacillus subtilis [2] and 100 µg/mL in the test with Bacillus subtilis [3].

One may read the MIC as the lowest concentration that inhibits growth of the organism.
